Source: PMC12203697, “Bioactive constituents from the edible seaweed Halymenia hawaiiana (Rhodophyta)” (Pharmaceutical Biology, 2025)

Test system: ROS/RNS generation in RAW 264.7 cells
Test: Intracellular ROS/RNS levels in LPS-induced RAW 264.7 cells (H2DCF-DA)
Format: cell-based
Settings: Mus musculus, RAW264.7; RAW 264.7 cells, H2DCF-DA dye, LPS 1 μg/mL; read-out: IC50, inhibition of LPS-induced ROS/RNS generation
Description: To measure the formation of intracellular ROS and RNS, we utilized the fluorogenic dye 2′,7′-dichlorodihydrofluorescein diacetate (Cat. No. 4091-99-0, H2DCF-DA, Abcam, Boston, MA, USA). This dye detects hydrogen peroxide, peroxyl radicals, and peroxynitrite anions (Kwon et al. [2019]). In brief, RAW 264.7 cells were seeded into a black 96-well plate (Cat. No. 165305, Thermo Fisher, USA) at 4 × 10^4 cells per well and incubated for 24 hr at 37 °C in 5% CO2. Afterward, the cells were treated with or without a sample for 4 hr before adding 1 μg/mL LPS (Cat. No. 00-4976-93, Thermo Fisher, USA) for 20 hr. Once this incubation was complete, the cells were washed twice with fetal bovine serum (FBS)-free media (Cat. No. A5256701, Thermo Fisher, USA) and stained with 10 μM H2DCF-DA (Cat. No. D399, Thermo Fisher, USA) in FBS-free media for 30 min at 37 °C, protected from light. Next, the dye-containing media was discarded, and the cells were washed twice with fresh serum-free media. The relative fluorescent intensity of the cells was measured using a fluorescence plate reader (Synergy H1, BioTeK, Winooski, VT, USA) with excitation/emission at 485 nm/535 nm. Curcumin (Cat. No. C1386-5G, Millipore Sigma, Burlington, MA, USA), a natural phenolic compound with antioxidant activity, was used as positive control. All samples were tested in triplicates. A sulforhodamine B (SRB) assay was conducted to assess cellular viability under a similar experimental setup. The final percentage of inhibition of ROS/RNS generation was calibrated using the % of cell viability.

IC50: 7.6 ± 0.1 µM
Compound: COc1cc(/C=C/C(=O)CC(=O)/C=C/c2ccc(O)c(OC)c2)ccc1O [Curcumin, reference compound]
